Like-named read-outs stand apart in the source and are kept apart here.
Key:
CEM-DNR = assay: MTS cytotoxicity assay, 72 h; type: cell-based; conditions: Homo sapiens, read-out: IC50 CEM-DNR
BJ = assay: MTS cytotoxicity assay, 72 h; type: cell-based; conditions: Homo sapiens, read-out: IC50 BJ
K562-TAX = assay: MTS cytotoxicity assay, 72 h; type: cell-based; conditions: read-out: IC50 K562-TAX
HCT116 = assay: MTS cytotoxicity assay, 72 h; type: cell-based; conditions: Homo sapiens, HCT-116, 72 h, read-out: IC50 HCT116
U2OS = assay: MTS cytotoxicity assay, 72 h; type: cell-based, human; conditions: Homo sapiens, U2OS, 72 h
MRC-5 = assay: MTS cytotoxicity assay, 72 h; type: cell-based; conditions: Homo sapiens, MRC5, 72 h, read-out: IC50 MRC-5
K562 = assay: MTS cytotoxicity assay, 72 h; type: cell-based; conditions: Homo sapiens, K562, 72 h, read-out: IC50 K562
A549 = assay: MTS cytotoxicity assay, 72 h; type: cell-based; conditions: Homo sapiens, Fig. S22
Procedure: Cell suspensions were prepared and diluted according to the particular cell type and the expected target cell density (500 – 4,000 cells/well). The cells (30 μL/well) were seeded to 384-well clear Corning plates by MultiDrop Combi (Thermo Fisher Scientific, USA). After 24 h the cells were treated with tested compounds as well as with vehicle (DMSO) and high controls (2.67 μM of Actinomycin D and 100 μM Mitomycin C) using contact-free acoustic liquid handler ECHO 555 (Labcyte, USA). Compounds were analyzed at a concentration range from 0.012 μM to 50 μM. Treated cells were incubated at 37 °C in a 5% CO2 atmosphere of a humidified incubator for 72 h. At the end of the incubation period, aliquots of the MTS (Promega) solution prepared according to manufacturer's instructions were added to cells (https://worldwide.promega.com/resources/protocols/technical-bulletins/0/celltiter-96-aqueous-nonradioactive-cell-proliferation-assay-protocol/). After 1 – 4 h of the incubation period, the optical density (OD) at 490 nm was measured on a multimode plate reader EnVision (PerkinElmer, USA). The experiments were performed in technical duplicates and at least three biological replicates. […] The assay quality was monitored by determining the Z′-factor for each 384-well plate. The resistance index (RI), representing the reduction in compound activity on resistant cell lines, was calculated as RI = (IC50 of resistant cell lines, CEM-DNR, K562-TAX)/(IC50 of nonresistant counterparts, CCRF-CEM, K562). Similarly, the selectivity index (SI), indicating preferential cytotoxicity toward tumor cell lines, was calculated as SI = (mean IC50 of nontumor cell lines, BJ and MRC5)/(mean IC50 of cancer cell lines without resistant variants, CCRF-CEM, K562, HCT116, HCT116p53–/–, U2OS).

CCRF-CEM = assay: MTS cytotoxicity assay, 72 h; type: cell-based
HCT116p53–/– = assay: MTS cytotoxicity assay, 72 h; type: cell-based; conditions: read-out: IC50 HCT116p53–/–
HUVEC = assay: MTS cytotoxicity assay, 72 h; type: cell-based; conditions: Homo sapiens, 3-day incubation, mean ± SD
CCRF-CEM lymphoblasts = assay: FACS analysis of cell cycle, apoptosis, mitosis and polyploidy; conditions: for Mitosis: phospho-Histone (Ser10); for Apoptosis: sub-G0/G1 DNA content, % of positive cells
[1] = daunorubicin-resistant, MTS assay, 3-day incubation, mean ± SD
[2] = normal fibroblasts, MTS assay, 3-day incubation, mean ± SD
[3] = paclitaxel-resistant, MTS assay, 3-day incubation, mean ± SD
[4] = MTS assay, 3-day incubation, mean ± SD
[5] = MTS assay, 3-day incubation, mean ± SD, read-out: IC50 U2OS
[6] = Homo sapiens, CCRF-CEM, 72 h, MTS assay, 3-day incubation, mean ± SD of 3 experiments, read-out: IC50 CCRF-CEM
[7] = read-out: IC50 U2OS, MTS assay, 3-day incubation, mean ± SD
[8] = Homo sapiens, CCRF-CEM, 72 h, read-out: IC50 CCRF-CEM, MTS assay, 3-day incubation, mean ± SD of 3 experiments

SMILES	IC50 (BJ; [2])	IC50 (HCT116; [4])	IC50 (U2OS; [5])	IC50 (MRC-5; [2])	IC50 (K562; [4])	IC50 (A549)	IC50 (CCRF-CEM; [6])	IC50 (HCT116p53–/–; [4])	IC50 (CEM-DNR)	IC50 (BJ)	IC50 (HUVEC)	IC50 (K562-TAX)	RI (resistance index) (panel of cell lines)	SI (selectivity index) (panel of cell lines)	G0/G1 (CCRF-CEM lymphoblasts; 1×IC50, 24 h)	G2/M (CCRF-CEM lymphoblasts; 1×IC50, 24 h)	Polyploid cells (CCRF-CEM lymphoblasts; 1×IC50, 24 h)	S (CCRF-CEM lymphoblasts; 1×IC50, 24 h)	Mitosis (CCRF-CEM lymphoblasts; 1×IC50, 24 h)	Apoptosis (CCRF-CEM lymphoblasts; 1×IC50, 24 h)	further results
C#CCCCC1=C2C(C)=CC(C)=[N+]2[B-](F)(F)n2c(C)cc(C)c21 [B9]	> 50 µM	> 50 µM	> 50 µM	> 50 µM	> 50 µM	> 50 µM	> 50 µM	> 50 µM													IC50 (CEM-DNR; [1]): > 50 µM; IC50 (K562-TAX; [3]): > 50 µM
CC1=CC(C)=[N+]2C1=C(CCCCN(C)C)c1c(C)cc(C)n1[B-]2(F)F [B6]	> 50 µM	> 50 µM	> 50 µM	> 50 µM	> 50 µM	> 50 µM	> 50 µM	> 50 µM													IC50 (CEM-DNR; [1]): > 50 µM; IC50 (K562-TAX; [3]): > 50 µM
COc1cc2c(c(OC)c1OC)-c1ccc(OC)c(=O)cc1[C@@H](NC(=O)CCCC[N+](C)(C)CCCCC1=C3C(C)=CC(C)=[N+]3[B-](F)(F)n3c(C)cc(C)c31)CC2 [CB3]									> 50 µM	> 50 µM	> 50 µM	40.1 ± 1.07 µM	>4.79	>1.83	2.89%	79.08%	26.03%	18.03%	58.58%	16.41%	cytotoxic activity across the cell line panel (in words) (panel of cell lines): significantly lower; apoptosis in CCRF-CEM cells (CCRF-CEM lymphoblasts; 1× and 5 × IC50, compared with DMSO): 20%; G0/G1 (CCRF-CEM lymphoblasts; 5×IC50, 24 h): 7.84%; G2/M (CCRF-CEM lymphoblasts; 5×IC50, 24 h): 84.01%; Polyploid cells (CCRF-CEM lymphoblasts; 5×IC50, 24 h): 26.25%; S (CCRF-CEM lymphoblasts; 5×IC50, 24 h): 8.15%; Mitosis (CCRF-CEM lymphoblasts; 5×IC50, 24 h): 57.12%; Apoptosis (CCRF-CEM lymphoblasts; 5×IC50, 24 h): 20.64%; IC50 (HCT116): 31.6 ± 4.54 µM; IC50 (U2OS; [7]): > 50 µM; IC50 (MRC-5): > 50 µM; IC50 (K562): 9.5 ± 2.37 µM; IC50 (CCRF-CEM; [8]): 9.33 ± 0.952 µM; IC50 (HCT116p53–/–): 36.4 ± 5.03 µM
COc1cc(C2=C3C(C)=CC(C)=[N+]3[B-](F)(F)n3c(C)cc(C)c32)ccc1OCc1cn([C@H]2CCc3cc(OC)c(OC)c(OC)c3-c3ccc(OC)c(=O)cc32)n[n+]1C [CB9]									6.49 ± 0.639 µM	> 50 µM	40.1 ± 2.93 µM	5.78 ± 0.561 µM	0.98	>3.15	12.83%	60.07%	29.32%	27.11%	32.84%	8.93%	G0/G1 (CCRF-CEM lymphoblasts; 5×IC50, 24 h): 19.56%; G2/M (CCRF-CEM lymphoblasts; 5×IC50, 24 h): 48.91%; Polyploid cells (CCRF-CEM lymphoblasts; 5×IC50, 24 h): 26.30%; S (CCRF-CEM lymphoblasts; 5×IC50, 24 h): 31.53%; Mitosis (CCRF-CEM lymphoblasts; 5×IC50, 24 h): 31.00%; Apoptosis (CCRF-CEM lymphoblasts; 5×IC50, 24 h): 14.27%; IC50 (HCT116): 8.27 ± 1.43 µM; IC50 (U2OS; [7]): > 50 µM; IC50 (MRC-5): > 50 µM; IC50 (K562): 7.69 ± 0.45 µM; IC50 (CCRF-CEM; [8]): 4.81 ± 0.641 µM; IC50 (HCT116p53–/–): 8.56 ± 0.365 µM
CC1=CC(C)=[N+]2C1=C(CCC(=O)O)c1c(C)cc(C)n1[B-]2(F)F [B1]	> 50 µM	> 50 µM	> 50 µM	> 50 µM	> 50 µM	> 50 µM	> 50 µM	> 50 µM													
COc1cc2c(c(OC)c1OC)-c1ccc(NCCCCC3=C4C(C)=CC(C)=[N+]4[B-](F)(F)n4c(C)cc(C)c43)c(=O)cc1[C@@H](NC(C)=O)CC2 [CB10]									11.1 ± 0.959 µM	> 50 µM	32.3 ± 0.42 µM	14.8 ± 2.94 µM	1.45	>1.63	34.04%	26.65%	12.43%	39.32%	2.86%	3.87%	cytotoxic activity across the cell line panel (in words) (panel of cell lines): significantly lower; G0/G1 (CCRF-CEM lymphoblasts; 5×IC50, 24 h): 8.21%; G2/M (CCRF-CEM lymphoblasts; 5×IC50, 24 h): 62.62%; Polyploid cells (CCRF-CEM lymphoblasts; 5×IC50, 24 h): 25.51%; S (CCRF-CEM lymphoblasts; 5×IC50, 24 h): 29.17%; Mitosis (CCRF-CEM lymphoblasts; 5×IC50, 24 h): 36.02%; Apoptosis (CCRF-CEM lymphoblasts; 5×IC50, 24 h): 11.26%; IC50 (HCT116): 35.8 ± 5.91 µM; IC50 (U2OS; [7]): > 50 µM; IC50 (MRC-5): > 50 µM; IC50 (K562): 10.8 ± 0.431 µM; IC50 (CCRF-CEM; [8]): 7.13 µM; IC50 (CCRF-CEM; read-out: IC50 CCRF-CEM, MTS assay, 3-day incubation, mean ± SD of 3 experiments): 7.11 ± 0.651 µM; IC50 (HCT116p53–/–): > 50 µM

— PMC12261228 (ACS Pharmacology & Translational Science, 2025)
